How the values were obtained:
Orexin receptor type 2 = biological target: T1, Orexin receptor type 2 (Homo sapiens, UniProt O43614); test: (§1) Evaluation of Activity for OX1R and OX2R: HEK293 (human embryonic kidney 293) cells with forced expression of human OX1R (hOX1R) or human OX2R (hOX2R) were seeded in a 384-well microplate (Greiner) at 10,000 per well and cultured for 1 day in high-glucose-DMEM (FujiFilm Corp.—Wako Pure Chemical Industries, Ltd.) containing added 10% FBS ([…]) and 1% Penicillin-Streptomycin (FujiFilm Corp.—Wako Pure Chemical Industries, Ltd.). After removing the medium, 40 μL of assay buffer (20 mM HEPES (Sigma-Aldrich Japan, KK.), Hanks' balanced salt solution (Gibco), 0.1% BSA (Sigma-Aldrich Japan, KK.), 0.1% Pluronic F-127 (Invitrogen)) containing Calcium 4 dye (Molecular Device Corporation) and 2.5 mM probenecid (Sigma-Aldrich Japan, KK.) were added, and the plate was incubated for 60 minutes. After further adding 20 μL of assay buffer, 20 μL of assay buffer containing the test compound was added and reaction was initiated. Change in intracellular calcium ion concentration during the reaction was measured based on the fluorescence intensity ratio in terms of the fluorescence value with wavelength excitation at 480 nm and detection at 540 nm, using FDSS7000 (Hamamatsu Photonics, K.K.). The test compound was dissolved in DMSO to 10 mM, and diluted with assay buffer to a final concentration of from 3×10−11 M to 1×10−7 M (DMSO final concentration of 0.1%). […]; type: cell-based
T1 sequence (O43614 whole entry): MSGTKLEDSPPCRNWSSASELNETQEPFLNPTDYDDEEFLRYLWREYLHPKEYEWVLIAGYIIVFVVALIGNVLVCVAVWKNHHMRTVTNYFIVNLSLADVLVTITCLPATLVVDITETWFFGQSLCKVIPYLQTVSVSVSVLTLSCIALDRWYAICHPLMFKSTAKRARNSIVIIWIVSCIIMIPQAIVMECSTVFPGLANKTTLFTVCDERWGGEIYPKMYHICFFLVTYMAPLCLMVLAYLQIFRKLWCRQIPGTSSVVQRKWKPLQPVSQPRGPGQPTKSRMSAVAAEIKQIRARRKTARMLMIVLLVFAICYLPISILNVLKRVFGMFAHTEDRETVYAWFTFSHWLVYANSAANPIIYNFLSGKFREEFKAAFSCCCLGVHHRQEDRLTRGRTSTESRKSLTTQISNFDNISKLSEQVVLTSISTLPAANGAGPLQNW

[1] = biological target: T2, Orexin/Hypocretin receptor type 1 (Homo sapiens, UniProt O43613); test: as §1; type: cell-based
T2 sequence (O43613 whole entry): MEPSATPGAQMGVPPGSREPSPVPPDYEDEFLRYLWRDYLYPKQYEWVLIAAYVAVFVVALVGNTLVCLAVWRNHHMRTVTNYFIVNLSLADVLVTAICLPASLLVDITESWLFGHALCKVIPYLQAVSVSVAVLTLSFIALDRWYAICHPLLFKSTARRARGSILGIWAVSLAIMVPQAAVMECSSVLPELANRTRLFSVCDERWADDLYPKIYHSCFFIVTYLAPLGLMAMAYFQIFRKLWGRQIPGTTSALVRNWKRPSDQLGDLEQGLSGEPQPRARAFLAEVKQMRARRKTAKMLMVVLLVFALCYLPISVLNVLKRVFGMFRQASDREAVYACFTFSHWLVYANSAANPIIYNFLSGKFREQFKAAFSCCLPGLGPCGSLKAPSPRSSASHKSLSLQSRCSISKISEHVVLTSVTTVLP

With `CO[C@@H]1CN(c2ncc(F)cn2)CC[C@@H]1[C@@H]1C[C@H]2CC[C@@H](C1)N2[C@@H](C(N)=O)C(C)C` the EC50 (Orexin receptor type 2) was 3.08 nM and the EC50 [1] was > 100 nM.
